The values below come from PMC4769596 (Biochemical pharmacology, 2014).

Molecules are shown by their SMILES. Read-outs that look alike come from different tables or passages of the source.

The EC50 is the concentration giving half of the maximal effect. Lower therefore signals higher potency in that assay.

The target in data set [1] is μOR (spinal cord membranes from WT mice) (Mus musculus, UniProt P42866). Briefly: [35S]GTPγS binding, spinal cord membranes from WT mice. As to conditions: spinal cord membranes (10 μg); for Emax (% basal), [35S]GTPγS binding: basal = 100%. Format: biochemical.
For data set [2], the target named is μOR (spinal cord membranes from δOR−/− mice) (Mus musculus, UniProt P42866). Briefly: [35S]GTPγS binding, spinal cord membranes from δOR−/− mice. Format: biochemical. As to conditions: spinal cord membranes (10 μg), basal = 100%.
Data set [3] concerns spinal cord membranes from μOR−/− mice. The experiment in a line: [35S]GTPγS binding, spinal cord membranes from μOR−/− mice. Format: biochemical.
Data set [4] addresses μOR (membranes from the ileum of WT mice) (Mus musculus, UniProt P42866). Briefly: [35S]GTPγS binding, ileal membranes from WT mice. Format: biochemical. As to conditions: 10 μM (Fig. 1G).
The target of data set [5] is μOR homomers (μ^βgalOR cells) (Homo sapiens, UniProt P35372). The data set is classed as cell-based.
Data set [6] relates to castor oil-induced diarrhea in WT mice. Format: in vivo. The settings on record: for effect on body weight change in presence of naltrexone: WT and δOR−/− mice; for reduction in castor oil-induced diarrhea after naltrexone pre-treatment: 10 mg/kg p.o., naltrexone 10 mg/kg i.p. 20 min before; for castor oil-induced diarrhea (diarrhea score): 5 or 10 mg/kg p.o. 15 min before castor oil; for castor oil-induced diarrhea (diarrhea score) / castor oil induced fecal output (fecal weight): 4 h; for castor oil induced fecal output (fecal weight) / castor oil-induced decrease in body weight: 5 or 10 mg/kg p.o.

For data set [7], the system named is castor oil-induced diarrhea in δOR−/− mice. Briefly: Castor oil-induced diarrhea in δOR−/− mice. The data set is classed as in vivo. The settings on record: for castor oil induced fecal output (fecal weight): 4 h; for castor oil-induced decrease in body weight: 5 or 10 mg/kg p.o., 4 h after castor oil.
In data set [8] the target is μOR-δOR heteromers (μ^βgalOR-δOR cells) (Homo sapiens, UniProt P35372+P41143).
The subject of data set [9] is novel-environment stressed mice. As to conditions: doses of 5–25 mg/kg; cited from earlier work.
The nature of data set [10]: Chronic treatment, body weight. The settings on record: 10 mg/kg/day p.o. for 5 days.
Another data set deals with antinociception. The settings on record: cited from earlier work.

μOR (spinal cord membranes from WT mice), sequence (P42866 whole entry): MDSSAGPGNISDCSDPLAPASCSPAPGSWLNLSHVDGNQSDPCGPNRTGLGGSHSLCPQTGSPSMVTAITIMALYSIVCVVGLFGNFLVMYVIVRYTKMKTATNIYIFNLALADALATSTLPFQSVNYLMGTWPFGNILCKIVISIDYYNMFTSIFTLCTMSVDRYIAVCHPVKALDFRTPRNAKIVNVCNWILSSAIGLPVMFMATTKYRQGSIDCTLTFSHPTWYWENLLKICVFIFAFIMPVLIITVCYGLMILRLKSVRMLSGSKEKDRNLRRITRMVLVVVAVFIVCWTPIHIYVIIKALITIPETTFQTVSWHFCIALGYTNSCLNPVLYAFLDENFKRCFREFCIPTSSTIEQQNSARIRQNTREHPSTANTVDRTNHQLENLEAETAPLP
μOR-δOR heteromers (μ^βgalOR-δOR cells), sequence (P35372 whole entry): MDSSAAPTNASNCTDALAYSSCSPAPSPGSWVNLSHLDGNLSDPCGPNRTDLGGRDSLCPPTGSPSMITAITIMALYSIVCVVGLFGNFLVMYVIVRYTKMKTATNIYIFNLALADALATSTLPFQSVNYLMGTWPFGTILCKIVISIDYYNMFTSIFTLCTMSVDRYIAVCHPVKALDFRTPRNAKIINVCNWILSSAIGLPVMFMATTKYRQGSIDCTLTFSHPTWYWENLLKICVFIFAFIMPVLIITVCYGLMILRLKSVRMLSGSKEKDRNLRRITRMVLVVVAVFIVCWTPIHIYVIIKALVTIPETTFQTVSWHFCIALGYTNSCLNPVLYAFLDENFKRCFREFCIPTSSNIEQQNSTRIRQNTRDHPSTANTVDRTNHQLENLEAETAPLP
μOR-δOR heteromers (μ^βgalOR-δOR cells), sequence (P41143 whole entry): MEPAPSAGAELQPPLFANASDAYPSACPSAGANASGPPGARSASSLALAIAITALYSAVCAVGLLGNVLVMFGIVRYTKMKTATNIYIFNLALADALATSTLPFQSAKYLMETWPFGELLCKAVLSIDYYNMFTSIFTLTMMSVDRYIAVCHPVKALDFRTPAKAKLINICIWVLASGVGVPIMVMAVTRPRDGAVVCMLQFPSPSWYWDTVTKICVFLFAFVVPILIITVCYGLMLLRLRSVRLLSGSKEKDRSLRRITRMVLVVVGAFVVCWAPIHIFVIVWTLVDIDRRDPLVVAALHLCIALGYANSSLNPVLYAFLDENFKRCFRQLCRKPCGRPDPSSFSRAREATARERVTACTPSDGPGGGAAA
μOR (spinal cord membranes from δOR−/− mice), sequence (P42866 whole entry): as the sequence (P42866 whole entry) above
μOR homomers (μ^βgalOR cells), sequence (P35372 whole entry): as the sequence (P35372 whole entry) above
μOR (membranes from the ileum of WT mice), sequence (P42866 whole entry): as the sequence (P42866 whole entry) above

Regarding `C[C@@H](NC(=O)[C@@H](N)Cc1ccc(O)cc1)C(=O)NCC(=O)N(C)[C@@H](Cc1ccccc1)C(=O)NCCO` [DAMGO, [D-Ala^2, N-MePhe^4, Gly-ol]-enkephalin], the “Emax (% basal), [35S]GTPγS binding” value is given as ~ 143 % basal in [1] and ~ 147 % basal in [2]. Further, the “increase of [35S]GTPγS binding” value in [3] is “did not increase”.

Take `COc1ccc(CN(C(=O)[C@@H](N)Cc2c(C)cc(C(N)=O)cc2C)[C@@H](C)c2ncc(-c3ccccc3)[nH]2)cc1C(=O)O` [eluxadoline]: in data set [1] (EC50, [35S]GTPγS binding), the EC50 was approximately 7 nM. The entries for the “Emax (% basal), [35S]GTPγS binding” value in data set [1] and in [2] were ~ 120 % basal and ~ 143 % basal, respectively. Further, the “increase of [35S]GTPγS binding” value in [3] is reported as “did not increase”. For the same compound, the “increase in [35S]GTPγS binding compared to DAMGO or loperamide” value in data set [4] was “higher increase”. Moreover, the “block of β-arrestin recruitment by μOR-selective antibodies” value in [5] is recorded as ~ 40%; in data set [8], ~ 17%. The “effect on body weight change in presence of naltrexone” value in data set [6] (naltrexone 10 mg/kg i.p.) is recorded as “partly blocked”. Besides, in data set [6] (WT mice, 5 mg/kg, 4 h after castor oil), the “fecal output versus vehicle control (constipation)” value is “slightly reduced fecal output to below the vehicle control”. Besides, the “reduction in castor oil-induced diarrhea after naltrexone pre-treatment” value in data set [6] (WT mice) is “not observed”. Further, the “castor oil-induced diarrhea (diarrhea score)” value is reported as “reduced” in [6] (WT mice), “did not significantly reduce” in [7] (5 mg/kg p.o.) and “partially eliminate” in data set [7] (10 mg/kg p.o.). Further, the figures for the “castor oil induced fecal output (fecal weight)” value in data set [6] (WT mice) and in data set [7] (5 mg/kg p.o.) were “significantly reduces” and “significantly decreased”, respectively. Also, the “castor oil-induced decrease in body weight” value in data set [6] (WT mice, 4 h after castor oil) is listed as “blocked”; in data set [7], “blocked”. Moreover, the “effect on fecal output with coadministration of naltrexone” value in [6] (WT mice, naltrexone 10 mg/kg i.p.) was “blocked”. Further, in data set [7] (5 mg/kg), the “effect on castor oil-induced body weight change compared to WT mice” value was “less effective”. Besides, in data set [8], the “block of β-arrestin recruitment by μOR-δOR heteromer-selective antibodies” value amounted to 27%. Also, the constipation entry in data set [9] was “did not cause constipation”. In [10], the “changes in body weight” value was “did not lead to significant changes”.

Turning to `CN(C)C(=O)C(CCN1CCC(O)(c2ccc(Cl)cc2)CC1)(c1ccccc1)c1ccccc1` [loperamide], in data set [3], the “increase of [35S]GTPγS binding” value is “did not increase”. In addition, the “effect on body weight change in presence of naltrexone” value in data set [6] (naltrexone 10 mg/kg i.p.) is “partly blocked”. For the same compound, the “reduction in castor oil-induced diarrhea after naltrexone pre-treatment” value in [6] (WT mice) is on record as “not observed”. The “castor oil-induced diarrhea (diarrhea score)” value in data set [6] (WT mice) is recorded as “reduced”; in data set [7] (5 mg/kg p.o.), “did not significantly reduce”; in [7] (10 mg/kg p.o.), “completely eliminate”. For the same compound, the “castor oil induced fecal output (fecal weight)” value is recorded as “significantly reduces” in [6] (WT mice) and “significantly decreased” in [7] (5 mg/kg p.o.). Besides, the “castor oil-induced decrease in body weight” value in data set [6] (WT mice, 4 h after castor oil) is reported as “blocked”; in [7], “blocked”. For the same compound, in data set [6] (mouse, in vivo), the “effect on fecal output with coadministration of naltrexone” value is on record as “blocked”. For the same compound, the “changes in body weight” value in [10] was “did not lead to significant changes”.

In the case of `CN1CC[C@]23c4c5ccc(O)c4O[C@H]2[C@H](NC(=O)COCC(=O)NCCCCCCCNC(=O)COCC(=O)Nc2cccc4c6c([nH]c24)[C@@H]2Oc4c(O)ccc7c4[C@@]24CCN(CC2CC2)[C@@H](C7)[C@]4(O)C6)CC[C@@]3(O)[C@H]1C5` [MDAN21], in the data set on antinociception, the “antinociceptive potency compared to morphine” value is on record as 100 times.
